Like-named read-outs stand apart in the source and are kept apart here.
Key:
[1] = system: LoVo cells; test: MTT based cell viability assay on LoVo cells; conditions: Homo sapiens, LoVo, 72 h, 3 d, read-out: IC50, growth inhibition of LoVo cells
Method in brief: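 Inhibition of LoVo proliferation was derived as IC50 from a sigmoidal dose-response fit of cell survival. Readout was MTT (0.5 mg/mL, 4 h) with absorbance at 552/630/690 nm, after 3-day treatment at 37 °C. Eight-point series from 10 μM to 0.01 μM, DMSO control, 1% DMSO final.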

[2] = target: Wee1 (h) (Homo sapiens, UniProt P30291); test: Wee1 kinase (h) detection method, [γ-33P]-ATP filter assay; type: biochemical
[3] = system: NCI-H1299 cells; test: MTT based cell viability assay on NCI-H1299 cells; conditions: Homo sapiens, read-out: IC50, growth inhibition of NCI-H1299 cells
Method in brief: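 Viability read-out was MTT reduction (0.5 mg/mL, 4 h, absorbance 552/630/690 nm) after 3-day compound exposure at 37 °C of NCI-H1299 cells seeded at 1000 per well. Dilutions spanned 10 μM–0.01 μM in DMSO, final DMSO 1‰. Survival-versus-concentration curves were fitted sigmoidally to give IC50.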

Sequence of Wee1 (h) (P30291 whole entry): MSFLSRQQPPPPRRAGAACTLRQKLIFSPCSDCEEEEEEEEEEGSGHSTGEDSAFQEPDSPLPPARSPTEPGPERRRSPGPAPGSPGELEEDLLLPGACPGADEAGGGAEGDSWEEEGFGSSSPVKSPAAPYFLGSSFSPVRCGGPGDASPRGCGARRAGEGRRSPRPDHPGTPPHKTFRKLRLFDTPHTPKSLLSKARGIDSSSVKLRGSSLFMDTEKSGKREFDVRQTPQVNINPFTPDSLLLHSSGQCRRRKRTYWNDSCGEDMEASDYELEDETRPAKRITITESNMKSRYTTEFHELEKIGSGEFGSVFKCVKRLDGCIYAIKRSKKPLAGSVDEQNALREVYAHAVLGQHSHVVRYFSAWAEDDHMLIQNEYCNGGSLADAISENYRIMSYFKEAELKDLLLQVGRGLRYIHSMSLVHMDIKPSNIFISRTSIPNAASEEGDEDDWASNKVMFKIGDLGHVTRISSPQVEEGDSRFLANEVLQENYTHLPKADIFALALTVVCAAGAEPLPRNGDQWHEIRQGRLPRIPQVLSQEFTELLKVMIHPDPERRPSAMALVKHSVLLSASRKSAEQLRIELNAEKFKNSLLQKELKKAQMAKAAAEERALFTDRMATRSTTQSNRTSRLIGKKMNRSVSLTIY

SMILES | IC50 [1] | Inh. (%) of Wee1 kinase enzyme activity ([2]; C 1 μm compound) | IC50 ([3]; NCI-H1299 cells) | IC50 ([3]; NCI-H1299, NCI-H1299 cells) | Inh. (%) of Wee1 kinase enzyme activity ([2]; C 0.01 μm compound) | Inh. (%) of Wee1 kinase enzyme activity ([2]; C 0.1 μm compound)
CN1CCC(Oc2ccc(Nc3ncc4c(n3)N3CCN=C3N(c3c(F)cccc3Cl)C4=O)cc2)CC1 [Example 107, 6-(2-Chloro-6-fluorophenyl)-2-((4-((1-methylpiperidin-4-yl)oxy)phenyl)amino)-8,9-dihydroimidazo[1,2-a]pyrimido[5,4-e]pyrimidin-5(6H)-one] | 360 nM | 95% | 794 nM | – | – | –
CN(C)CCNc1ccc(Nc2ncc3c(n2)N2CCN=C2N(c2c(F)cccc2Cl)C3=O)cc1 [Example 108, 6-(2-Chloro-6-fluorophenyl)-2-((4-((2-(dimethylamino)ethyl)amino)phenyl)amino)-8,9-dihydroimidazo[1,2-a]pyrimido[5,4-e]pyrimidin-5(6H)-one] | 1500 nM | 96% | – | 899 nM | – | –
CN(C)CCN(C)c1ccc(Nc2ncc3c(n2)N2CCN=C2N(c2c(F)cccc2Cl)C3=O)cc1 [Example 109, 6-(2-Chloro-6-fluorophenyl)-2-((4-((2-(dimethylamino)ethyl)(methyl)amino)phenyl)amino)-8,9-dihydroimidazo[1,2-a]pyrimido[5,4-e]pyrimidin-5(6H)-one] | 1150 nM | 96% | 884 nM | – | – | –
CN(C)CCCNc1ccc(Nc2ncc3c(n2)N2CCN=C2N(c2c(F)cccc2Cl)C3=O)cc1 [Example 110, 6-(2-Chloro-6-fluorophenyl)-2-((4-((3-(dimethylamino)propyl)amino)phenyl)amino)-8,9-dihydroimidazo[1,2-a]pyrimido[5,4-e]pyrimidin-5(6H)-one] | 472 nM | 96% | 599 nM | – | – | –
CN(C)CCCN(C)c1ccc(Nc2ncc3c(n2)N2CCN=C2N(c2c(F)cccc2Cl)C3=O)cc1 [Example 111, 6-(2-Chloro-6-fluorophenyl)-2-((4-((3-(dimethylamino)propyl)(methyl)amino)phenyl)amino)-8,9-dihydroimidazo[1,2-a]pyrimido[5,4-e]pyrimidin-5(6H)-one] | 835 nM | 96% | 913 nM | – | – | –
CN1CCC(Nc2ccc(Nc3ncc4c(n3)N3CCN=C3N(c3c(F)cccc3Cl)C4=O)cc2)CC1 [Example 112, 6-(2-Chloro-6-fluorophenyl)-2-((4-((1-methylpiperidin-4-yl)amino)phenyl)amino)-8,9-dihydroimidazo[1,2-a]pyrimido[5,4-e]pyrimidin-5(6H)-one] | 393 nM | 97% | – | 481 nM | – | –
CN1CCC(N(C)c2ccc(Nc3ncc4c(n3)N3CCN=C3N(c3c(F)cccc3Cl)C4=O)cc2)CC1 [Example 113, 6-(2-Chloro-6-fluorophenyl)-2-((4-(methyl(1-methylpiperidin-4-yl)amino)phenyl)amino)-8,9-dihydroimidazo[1,2-a]pyrimido[5,4-e]pyrimidin-5(6H)-one] | 483 nM | 96% | – | 672 nM | – | –
CN1CCN(c2cnc(Nc3ncc4c(n3)N3CCN=C3N(c3c(F)cccc3Cl)C4=O)cn2)CC1 [Example 121, 6-(2-Chloro-6-fluorophenyl)-2-((5-(4-methylpiperazin-1-yl)pyrazin-2-yl)amino)-8,9-dihydroimidazo[1,2-a]pyrimido[5,4-e]pyrimidin-5(6H)-one] | > 100000 nM | 15% | > 10000 nM | – | – | –
CN1CCN(c2c(Cl)cc(Nc3ncc4c(n3)N3CCN=C3N(c3c(F)cccc3Cl)C4=O)cc2Cl)CC1 [Example 122, 6-(2-Chloro-6-fluorophenyl)-2-((3,5-dichloro-4-(4-methylpiperazin-1-yl)phenyl)amino)-8,9-dihydroimidazo[1,2-a]pyrimido[5,4-e]pyrimidin-5(6H)-one] | 51.8 nM | 91% | – | 334 nM | 20% | 58%

Continued, values first:

IC50 [1] | Inh. (%) of Wee1 kinase enzyme activity ([2]; C 1 μm compound) | IC50 ([3]; NCI-H1299 cells) | IC50 ([3]; NCI-H1299, NCI-H1299 cells) | Inh. (%) of Wee1 kinase enzyme activity ([2]; C 0.01 μm compound) | Inh. (%) of Wee1 kinase enzyme activity ([2]; C 0.1 μm compound) | SMILES
105 nM | 98% | – | 233 nM | – | – | CN1CCC(c2ccc(Nc3ncc4c(n3)N3CCN=C3N(c3c(F)cccc3Cl)C4=O)cc2)CC1 [Example 114, 6-(2-Chloro-6-fluorophenyl)-2-((4-(1-methylpiperidin-4-yl)phenyl)amino)-8,9-dihydroimidazo[1,2-a]pyrimido[5,4-e]pyrimidin-5(6H)-one]
265 nM | 96% | – | 381 nM | 34% | 81% | CN(C)C1CCN(c2ccc(Nc3ncc4c(n3)N3CCN=C3N(c3c(F)cccc3Cl)C4=O)cc2)CC1 [Example 115, 6-(2-Chloro-6-fluorophenyl)-2-((4-(4-(dimethylamino)piperidin-1-yl)phenyl)amino)-8,9-dihydroimidazo[1,2-a]pyrimido[5,4-e]pyrimidin-5(6H)-one]
123 nM | 98% | – | 265 nM | 19% | 77% | CN(C)C1CCN(c2ccc(Nc3ncc4c(n3)N3CCN=C3N(c3c(F)cccc3Cl)C4=O)cc2F)CC1 [Example 116, 6-(2-Chloro-6-fluorophenyl)-2-((4-(4-(dimethylamino)piperidin-1-yl)-3-fluorophenyl)amino)-8,9-dihydroimidazo[1,2-a]pyrimido[5,4-e]pyrimidin-5(6H)-one]
66.2 nM | 98% | – | 103 nM | 22% | 84% | CN(C)C1CCN(c2ccc(Nc3ncc4c(n3)N3CCN=C3N(c3c(F)cccc3Cl)C4=O)cc2Cl)CC1 [Example 117, 6-(2-Chloro-6-fluorophenyl)-2-((3-chloro-4-(4-(dimethylamino)piperidin-1-yl)phenyl)amino)-8,9-dihydroimidazo[1,2-a]pyrimido[5,4-e]pyrimidin-5(6H)-one]
81.1 nM | 96% | – | 96.4 nM | 25% | 82% | CN(C)C1CCN(c2ccc(Nc3ncc4c(n3)N3CCN=C3N(c3c(F)cccc3Cl)C4=O)cc2Br)CC1 [Example 118, 6-(2-Chloro-6-fluorophenyl)-2-((3-bromo-4-(4-(dimethylamino)piperidin-1-yl)phenyl)amino)-8,9-dihydroimidazo[1,2-a]pyrimido[5,4-e]pyrimidin-5(6H)-one]
54.3 nM | 99% | – | 92.3 nM | 24% | 86% | Cc1cc(Nc2ncc3c(n2)N2CCN=C2N(c2c(F)cccc2Cl)C3=O)ccc1N1CCC(N(C)C)CC1 [Example 119, 6-(2-Chloro-6-fluorophenyl)-2-((4-(4-(dimethylamino)piperidin-1-yl)-3-methylphenyl)amino)-8,9-dihydroimidazo[1,2-a]pyrimido[5,4-e]pyrimidin-5(6H)-one]
35.9 nM | 98% | – | 59.3 nM | 16% | 80% | Cc1cc(Nc2ncc3c(n2)N2CCN=C2N(c2c(F)cccc2Cl)C3=O)cc(F)c1N1CCC(N(C)C)CC1 [Example 120, 6-(2-Chloro-6-fluorophenyl)-2-((3-fluoro-5-methyl-4-(4-(dimethylamino)piperidin-1-yl)phenyl)amino)-8,9-dihydroimidazo[1,2-a]pyrimido[5,4-e]pyrimidin-5(6H)-one]

Source: patent US11345711B2, “8,9-dihydroimidazo[1,2-a]pyrimido[5,4-e]pyrimidin-5(6H)-ones” (IMPACT THERAPEUTICS (SHANGHAI), INC, priority 2016, dated 2022)
